From patent publication US11926625B2, “HPK1 antagonists and uses thereof” (Nimbus Saturn, Inc., priority 2021, dated 2024)

What follows are compounds tested against T1, HPK1 (Homo sapiens, UniProt Q92918) (assay: HPK1 biochemical enzyme assay (microfluidic mobility shift, Caliper)). Details: 1.5 nM HPK1 (Invitrogen), 1 mM ATP, 30 min preincubation, 60 min at RT, top concentration 3 μM; read-out: HPK1 1000UMATP caliper IC50.
T1 construct: purchased Invitrogen
Description: Example 20. HPK1 Biochemical Enzyme Assay
HPK1 biochemical enzyme assay: HPK1 enzyme inhibition was measured using a microfluidic mobility shift assay. Reactions were performed in a 384-well plate, containing 1.5 nM HPK1 (Invitrogen), in assay buffer (Cama Biosciences; pH 7.4). Test compounds were titrated in ten point curves (top final assay concentration 3 μM), and preincubated with enzyme/substrate mix for 30 min prior to initiation of the reaction by addition of ATP (1 mM final concentration) and substrate (1 μM final concentration; Carna Biosciences) diluted in assay buffer supplemented by MgCl2 (final assay concentration of 5 mM). Following 60 min incubation at RT, the reaction was terminated by addition of 60 μl/well termination buffer (Carna Biosciences) and signal determination using a Caliper EZ Reader (Perkin Elmer, UK).

T1 sequence (Q92918 whole entry): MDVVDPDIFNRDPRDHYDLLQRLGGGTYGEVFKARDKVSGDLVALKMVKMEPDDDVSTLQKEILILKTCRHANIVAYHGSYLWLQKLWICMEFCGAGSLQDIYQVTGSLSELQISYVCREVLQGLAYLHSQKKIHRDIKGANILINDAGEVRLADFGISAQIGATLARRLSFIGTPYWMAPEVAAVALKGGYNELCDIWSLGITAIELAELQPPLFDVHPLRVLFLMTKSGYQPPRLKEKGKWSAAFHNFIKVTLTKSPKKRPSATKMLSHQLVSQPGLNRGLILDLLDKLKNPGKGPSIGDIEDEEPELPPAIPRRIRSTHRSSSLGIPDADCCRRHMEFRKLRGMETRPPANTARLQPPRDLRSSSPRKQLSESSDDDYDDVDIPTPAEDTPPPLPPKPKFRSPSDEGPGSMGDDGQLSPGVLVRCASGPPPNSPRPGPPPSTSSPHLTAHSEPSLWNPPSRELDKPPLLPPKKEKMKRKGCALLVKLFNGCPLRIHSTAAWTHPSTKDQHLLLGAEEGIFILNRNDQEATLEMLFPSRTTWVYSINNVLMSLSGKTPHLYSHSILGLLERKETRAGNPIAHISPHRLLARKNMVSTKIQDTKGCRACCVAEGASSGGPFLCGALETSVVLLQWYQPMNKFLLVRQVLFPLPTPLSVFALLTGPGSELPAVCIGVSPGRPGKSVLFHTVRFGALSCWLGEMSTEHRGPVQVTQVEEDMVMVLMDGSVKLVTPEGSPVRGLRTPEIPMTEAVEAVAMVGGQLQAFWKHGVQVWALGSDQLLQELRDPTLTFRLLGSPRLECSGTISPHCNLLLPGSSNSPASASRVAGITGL

IC50 [nM] | Structure (SMILES)
1000 to 5000 | CN1CCN(c2ccc(Nc3ccc(-c4ccnc(N5CCOCC5)n4)c4c3C(=O)NC4)nc2)CC1 [Compound I-51, 7-[[5-(4-methylpiperazin-1-yl)-2-pyridyl]amino]-4-(2-morpholinopyrimidin-4-yl)isoindolin-1-one]
< 1000 | CNc1cc(-c2ccc(Nc3ccc(N4CCN(C)CC4)cn3)c3c2CNC3=O)ccn1 [Compound I-52, 4-[2-(methylamino)-4-pyridyl]-7-[[5-(4-methylpiperazin-1-yl)-2-pyridyl]amino] isoindolin-1-one]
< 1000 | CNC1CCN(c2ccc(Nc3ccc(-c4ccncc4)c4c3C(=O)NC4)nc2)CC1 [Compound I-53, 7-[[5-[4-(methylamino)-1-piperidyl]-2-pyridyl]amino]-4-(4-pyridyl) isoindolin-1-one]
< 1000 | CN1CCN(c2ccc(Nc3ccc(-c4cncn4C)c4c3C(=O)NC4)nc2)CC1 [Compound I-54, 4-(3-methylimidazol-4-yl)-7-[[5-(4-methylpiperazin-1-yl)-2-pyridyl]amino] isoindolin-1-one]
< 1000 | CNc1cc(-c2ncc(Nc3ccc(N4CCN(C)CC4)cn3)c3c2CNC3=O)ccn1 [Compound I-56, 4-(2-(methylamino)pyridin-4-yl)-7-((5-(4-methylpiperazin-1-yl)pyridin-2-yl)amino)-2,3-dihydro-1H-pyrrolo[3,4-c]pyridin-1-one]
< 1000 | Cc1cc(-c2ccc(Nc3ccc(N4CCN(C)CC4)cn3)c3c2CNC3=O)cc(=O)[nH]1 [Compound I-57, 4-(6-methyl-2-oxo-1,2-dihydropyridin-4-yl)-7-((5-(4-methylpiperazin-1-yl)pyridin-2-yl)amino) isoindolin-1-one]
1000 to 5000 | CN1CCN(c2ccc(Nc3cnc(-c4ccnc(N(C)C)c4)c4c3C(=O)NC4)nc2)CC1 [Compound I-58, 4-(2-(dimethylamino)pyridin-4-yl)-7-((5-(4-methylpiperazin-1-yl)pyridin-2-yl)amino)-2,3-dihydro-1H-pyrrolo[3,4-c]pyridin-1-one]
< 1000 | CN1CCN(c2ccc(Nc3ccc(-c4ccnnc4)c4c3C(=O)NC4)nc2)CC1 [Compound I-59, 7-((5-(4-methylpiperazin-1-yl)pyridin-2-yl)amino)-4-(pyridazin-4-yl)isoindolin-1-one]
< 1000 | CC#Cc1cc(-c2ccc(Nc3ccc(N4CCN(C)CC4)cn3)c3c2CNC3=O)ccn1 [Compound I-60, 7-((5-(4-methylpiperazin-1-yl)pyridin-2-yl)amino)-4-(2-(prop-1-yn-1-yl)pyridin-4-yl)isoindolin-1-one]
1000 to 5000 | CN1CCN(c2ccc(Nc3ccc(-c4cc(N5CC6CCC(C5)O6)ncn4)c4c3C(=O)NC4)nc2)CC1 [Compound I-61, 4-(6-(8-oxa-3-azabicyclo [3.2.1]octan-3-yl)pyrimidin-4-yl)-7-((5-(4-methylpiperazin-1-yl)pyridin-2-yl)amino) isoindolin-1-one]
1000 to 5000 | CN1CCN(c2ccc(Nc3ccc(-c4ccnc(C5CCOCC5)n4)c4c3C(=O)NC4)nc2)CC1 [Compound I-62, 7-((5-(4-methylpiperazin-1-yl)pyridin-2-yl)amino)-4-(2-(tetrahydro-2H-pyran-4-yl)pyrimidin-4-yl)isoindolin-1-one]
< 1000 | CN1CCN(c2ccc(Nc3ccc(-c4ccnc(C#CC5CCCCC5)c4)c4c3C(=O)NC4)nc2)CC1 [Compound I-63, 4-(2-(cyclohexylethynyl)pyridin-4-yl)-7-((5-(4-methylpiperazin-1-yl)pyridin-2-yl)amino) isoindolin-1-one]
< 1000 | Cc1cccc(C#Cc2cc(-c3ccc(Nc4ccc(N5CCN(C)CC5)cn4)c4c3CNC4=O)ccn2)c1 [Compound I-64]
1000 to 5000 | CN1CCN(c2ccc(Nc3ccc(-c4ccnc(C5CCCCO5)c4)c4c3C(=O)NC4)nc2)CC1 (stereo not drawn) [Compound I-65, 7-((5-(4-methylpiperazin-1-yl)pyridin-2-yl)amino)-4-(2-(tetrahydro 2H-pyran-2-yl)pyridin-4-yl)isoindolin-1-one]
1000 to 5000 | CN1CCN(c2ccc(Nc3ccc(-c4ccnc(C5CCCOC5)c4)c4c3C(=O)NC4)nc2)CC1 (stereo not drawn) [Compound I-66, 7-((5-(4-methylpiperazin-1-yl)pyridin-2-yl)amino)-4-(2-(tetrahydro-2H-pyran-3-yl)pyridin-4-yl)isoindolin-1-one]
< 1000 | CN1CCN(c2ccc(Nc3ccc(-c4ccnc(C#Cc5ccn(C)n5)c4)c4c3C(=O)NC4)nc2)CC1 [Compound I-67, 4-(2-((1-methyl-1H-pyrazol-3-yl)ethynyl)pyridin-4-yl)-7-((5-(4-methylpiperazin-1-yl)pyridin-2-yl)amino) isoindolin-1-one]
< 1000 | CN1CCN(c2ccc(Nc3ccc(-c4ccnc(C#CC5CCCO5)c4)c4c3C(=O)NC4)nc2)CC1 (stereo not drawn) [Compound I-68]
< 1000 | CN1CCN(c2ccc(Nc3ccc(-c4cc(C5CCOCC5)ncn4)c4c3C(=O)NC4)nc2)CC1 [Compound I-69]

IC50 [nM] | Structure (SMILES)
1000 to 5000 | CN1CCN(c2ccc(Nc3ccc(-c4ccncc4C4CCOCC4)c4c3C(=O)NC4)nc2)CC1 [Compound I-70, 7-((5-(4-methylpiperazin-1-yl)pyridin-2-yl)amino)-4-(3-(tetrahydro-2H-pyran-4-yl)pyridin-4-yl)isoindolin-1-one]
< 1000 | Cn1cncc1-c1ccc(Nc2ccc(N3CCNCC3)cn2)c2c1CNC2=O [Compound I-71, 4-(1-methyl-1H-imidazol-5-yl)-7-((5-(piperazin-1-yl)pyridin-2-yl)amino) isoindolin-1-one]
< 1000 | Cc1ncc(-c2ccc(Nc3ccc(N4CCNCC4)cn3)c3c2CNC3=O)n1C [Compound I-72, 4-(1,2-dimethyl-1H-imidazol-5-yl)-7-((5-(piperazin-1-yl)pyridin-2-yl)amino) isoindolin-1-one]
< 1000 | CN1CCN(c2ccc(Nc3cnc(-c4cncn4C)c4c3C(=O)NC4)nc2)CC1 [Compound I-73, 4-(1-methyl-1H-imidazol-5-yl)-7-((5-(4-methylpiperazin-1-yl)pyridin-2-yl)amino)-2,3-dihydro-1H-pyrrolo[3,4-c]pyridin-1-one]
1000 to 5000 | CN1CCN(c2ccc(Nc3ccc(-c4ccncc4N4CC5CCC(C4)O5)c4c3C(=O)NC4)nc2)CC1 [Compound I-74]
< 1000 | O=C1NCc2c(-c3cncn3-c3ccccc3)ccc(Nc3ccc(N4CCNCC4)cn3)c21 [Compound I-75, 4-(1-phenyl-1H-imidazol-5-yl)-7-((5-(piperazin-1-yl)pyridin-2-yl)amino) isoindolin-1-one]
1000 to 5000 | CN1CCN(c2ccc(Nc3ccc(-c4ccnc(C5CCOC5)c4)c4c3C(=O)NC4)nc2)CC1 (stereo not drawn) [Compound I-76]
1000 to 5000 | Cn1cnc(-c2ccc(Nc3ccc(N4CCNCC4)cn3)c3c2CNC3=O)c1-c1ccccc1 [Compound I-77, 4-(1-methyl-5-phenyl-1H-imidazol-4-yl)-7-((5-(piperazin-1-yl)pyridin-2-yl)amino) isoindolin-1-one]
< 1000 | Cn1c(-c2ccc(Nc3ccc(N4CCNCC4)cn3)c3c2CNC3=O)cnc1-c1ccccc1 [Compound I-78, 4-(1-methyl-2-phenyl-1H-imidazol-5-yl)-7-((5-(piperazin-1-yl)pyridin-2-yl)amino) isoindolin-1-one]
< 1000 | Cn1cnc(-c2ccccc2)c1-c1ccc(Nc2ccc(N3CCNCC3)cn2)c2c1CNC2=O [Compound I-79, 4-(1-methyl-4-phenyl-1H-imidazol-5-yl)-7-((5-(piperazin-1-yl)pyridin-2-yl)amino) isoindolin-1-one]
1000 to 5000 | O=C1NCc2c(-c3cn(-c4ccccc4)cn3)ccc(Nc3ccc(N4CCNCC4)cn3)c21 [Compound I-80, 4-(1-phenyl-1H-imidazol-4-yl)-7-((5-(piperazin-1-yl)pyridin-2-yl)amino) isoindolin-1-one]
1000 to 5000 | O=C1NCc2c(-n3ccnc3)ccc(Nc3ccc(N4CCNCC4)cn3)c21 [Compound I-81, 4-(1H-imidazol-1-yl)-7-((5-(piperazin-1-yl)pyridin-2-yl)amino) isoindolin-1-one]
1000 to 5000 | CN1CCN(c2ccc(Nc3ccc(-c4ccnc(N5CC6CCC(C5)O6)n4)c4c3C(=O)NC4)nc2)CC1 [Compound I-82, 4-(2-(8-oxa-3-azabicyclo [3.2.1]octan-3-yl)pyrimidin-4-yl)-7-((5-(4-methylpiperazin-1-yl)pyridin-2-yl)amino) isoindolin-1-one]
1000 to 5000 | O=C1NCc2c(Cc3ccccc3)ccc(Nc3ccc(N4CCNCC4)cn3)c21 [Compound I-83, 4-benzyl-7-((5-(piperazin-1-yl)pyridin-2-yl)amino) isoindolin-1-one]
< 1000 | CN1CCN(c2ccc(Nc3ccc(-c4cn[nH]c4)c4c3C(=O)NC4)nc2)CC1 [Compound I-84, 7-((5-(4-methylpiperazin-1-yl)pyridin-2-yl)amino)-4-(1H-pyrazol-4-yl)isoindolin-1-one]
< 1000 | CN1CCN(c2ccc(Nc3ccc(-c4ccnc(C#C[C@H]5CCCO5)c4)c4c3C(=O)NC4)nc2)CC1 [Compound I-85]
1000 to 5000 | CCc1cnc(N)nc1-c1ccc(Nc2ccc(N3CCN(C)CC3)cn2)c2c1CNC2=O [Compound I-86, 4-(2-amino-5-ethylpyrimidin-4-yl)-7-((5-(4-methylpiperazin-1-yl)pyridin-2-yl)amino) isoindolin-1-one]
1000 to 5000 | CN1CCN(c2ccc(Nc3ccc(-c4ccc(F)c(C5CCOCC5)c4)c4c3C(=O)NC4)nc2)CC1 [Compound I-87, 4-(4-fluoro-3-(tetrahydro-2H-pyran-4-yl)phenyl)-7-((5-(4-methylpiperazin-1-yl)pyridin-2-yl)amino) isoindolin-1-one]
